Measurements as given in patent publication US20260226101A1, “PEPTIDE WITH ANTI-INFLAMMATORY AND ANTI-MICROBIAL ACTIVITY” (priority 2023, published 2026).
Ends that are not written are not given here.

Key:
[1] = tested on: LPS-stimulated peritoneal macrophages; assay: Cytokine ELISA in LPS-stimulated peritoneal macrophages; type: cell-based, BALB/c mice
Description: BALB/c mice (6-8 wk old) of either sex was injected IP with 1 ml of 4% sterile thioglycollate broth in PBS. After 4 d, mice were sacrificed, and peritoneal macrophages were harvested as described below [Meurer S K, 2016] and this model is well known as “Thioglycollate-induced peritonitis model”. […] After 4 days, mice were then euthanized, and the peritoneal macrophages were harvested by lavaging the peritoneal cavity with 5-6 mL of harvest medium (EDTA 5 mM+PBS). Isolated peritoneal exudate cells were washed twice with RPMI and centrifuged at 1000 rpm/400×g for 8-10 min at 4° C. […] The plates were then washed with warm PBS to remove non-adherent cells. […] After 24 h, culture supernatants were collected for estimation of cytokines by ELIZA and RTqPCR, whereas cells were harvested for western blotting. The procedure of ELISA, RTqPCR and other conditions are same as in the section. [Min Jee Kim et al., 2014].

[2] = tested on: E. coli ATCC 8739-induced septic peritonitis; assay: E. coli-induced septic peritonitis model; type: in vivo, BALB/c mice; details: for Mice alive: 18 h after infection
Description: Bacterial strain of E. coli ATCC 8739™ were maintained in our laboratory and used for the mouse sepsis model. The strain was previously stored at −80° C. in a Luria Bertani (LB) broth with 15-20% of glycerol. Single colonies from viable, growing Luria-Bertani (LB) agar plates were transferred to sterile liquid LB medium (containing 10 g tryptone, 10 g NaCl, and 5 g yeast extract per liter) and cultivated aerobically in 50-ml volumes at 37° C. in an orbital shaker for 24 h at 37° C. These cultures were transferred to 500 ml of fresh LB medium for another 12 h. The optical density (OD) of the suspension was adjusted to 0.3 (exponential phase) using a spectrophotometer. Such OD corresponds to*10^8 colony-forming units (CFU)/mL. When bacteria were in the log phase of growth, the suspension was harvested by centrifugation at 1500×g for 5 min at 4° C.; the supernatant was discarded and washed and resuspended three times in phosphate-buffered saline (PBS) at pH 7.4 and mixed by vortexing to achieve a concentration of approximately 1×10^8 colony-formation units (CFU) per milliliter. Finally, the bacterial suspensions were incubated in a water bath at 100° C. for 30 min to inactivate the cells. One hundred microliters of the suspension were serially diluted with sterile saline solution, plated on sheep blood agar plates, and incubated for 18 hours for determination of the bacterial concentration. The rest of the culture suspension was stored at 4° C. until use. Just before the intraperitoneal injection, the bacterial suspension was adjusted to a concentration of 1×10^8 colony forming units (CFU) per 0.1 mL with normal saline solution/PBS.
This study was carried out within an animal containment BSL2 facility. The animals were infected with suspensions containing […] E. coli 8739™ (200 μL) inoculated intraperitoneally. The day of challenge was designated as day 1 of the experiment and considers it as 0 hr. [Wendy E. Walker, 2021; Komal Dolasia et al., 2018]
Mice received an intraperitoneal injection of E. coli ATCC 8739, 5.0×10^8 CFU per mouse in 200 μL to induce septic peritonitis as mentioned above. After 2 h of the E. coli infection, mice (n=6) were treated intravenously with two test doses of IS 111 (0.6 mg/kg & 1.2 mg/kg) in treatment groups. Control animals received 200 μL of normal saline. […] The figure was adopted and modified according to the present study. [Henrique G et al., 2020].
In all the animal experiments, IS 111 were administered by intravenous injections respectively; According to the clinical dosage regimen, IS 111 was repeatedly administered at 2 h after the intraperitoneal injection of heat-killed E. coli. The survival of mice was monitored for up to 5 days. In each group the half of the animals were killed after 18 hours. And in other subset of the animals, IS 111 at two doses 0.6 & 1.2 mg/kg were injected IV daily for 3 days following infection. The survival of mice was monitored for up to 18 h and the other half of the animals are continued for the survival monitored up to 5 days.
In the survival study, survival rates were determined over a period of 5 d with assessment every 12 h, by setting the day 0 from 0 to 18 h after surgery and continuing observation until […]. In each group the half of the animals were killed after 18 hours, in another half subset of animals was followed for 5 days for survival assessment after sepsis induction to verify mortality rates. IS 111 at two doses 0.6 & 1.2 mg/kg were injected IV daily 24 h for 3 days following the E. coli Infection.
The physical activity of the mice was recorded independently by two independent observers who were blinded to treatment before sampling as previously described. In this study predetermined grading system was used with a scale of 1 (healthy) to 5 (agony). […]

[3] = 0.6 mg/kg IV, 18 hr after induction of septic shock
[4] = 18 h, comparable to control mice
[5] = serum 18 h, therapeutic administration

“FAKKFAK [IS 111, Phe-Ala-Lys-Lys-Phe-Ala-Lys]” was tested, and the “Concentration of maximum inhibition for all cytokines” value ([1]; IL-1β, IL-6, IL-12p70, TNF-α, text prints RAW 264.7 cells) was 100 µM, the IL-10 levels ([1]; summary table) was “TNF-α and ↑ IL-10 levels” and the “Lung and liver injuries (histopathology)” value ([2]; 0.6 mg/kg IV, 18 h) was “reduces the injuries to moderate extent”. For the same substance, the Activity upon stimulation [2, 3] was “Sluggish activity. Animals”, the Conjunctivitis [2, 3] was “Mild (Usually serous” and the Hair coat [2, 3] was “Moderately ruffled coats”. For the same substance, the Mice alive ([2]; 0.6 mg/kg) was 50%, the Lymphocyte numbers [2, 4] was “restored” and the WBC numbers [2, 4] was “restored”. For the same substance, the Neutrophil numbers ([2]; 18 h, vs septic mice) was “marginally higher”, the Mice alive ([2]; […]) was 80% and the Survival ([2]; after 7 days of infection, IS 111 treatment groups) was 80%. For the same substance, the IL-1b level [2, 5] was “significantly reduce”, the IL-6 level [2, 5] was “significantly reduce” and the “IL-12 p70 level” value [2, 5] was “significantly reduce”. For the same substance, the TNF-α level [2, 5] was “significantly reduce” and the Reduction of mortality ([2]; vs diseased control animals (normal saline)) was 80%.
